# Columns and labels:
# [1] = test system: human ventricular trabeculae; test: Action potential recording and pro-arrhythmic score analysis in human ventricular trabeculae (hVT); conditions: for Refractoriness Escape (raw data) / Beat Escape (raw data) / EADs (raw data): n=4 trabeculae;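 on all read-outs here: sharp microelectrode action potential recordings at 37°C in Tyrode-perfused trabeculae, 4 cumulative concentrations each applied 31 min, values averaged over last 30 APs, vehicle 0.1% DMSO as control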
# Protocol: Briefly, the human heart was transferred into a dissection vessel containing a cold (4°C), fresh proprietary dissection solution. The heart was maintained completely submerged in dissection solution. Ventricular trabeculae were dissected and transferred to the recording chamber.
# Briefly, a single tissue was mounted into the experimental chamber filled with oxygenated Tyrode's external solution. The temperature of the solution was maintained at 37°C with flow rate at 5 mL per minute. The tissue was allowed to equilibrate for 30–60 min with stimulation (3 V, 3 ms) at a frequency of 1.0 Hz. High impedance borosilicate microelectrodes were prepared with a tip resistance of 10–20 MΩ once filled with 3 M KCl. Upon tissue impalement, the membrane potential was allowed to stabilize (typically, around −85 mV). Tissues with resting membrane potentials more positive than −75 mV were rejected. Bipolar stimulation at 1.5x threshold was applied and recordings were performed in continuous mode with sampling at 20 kHz using ADInstruments and LabChart Software.
# Interruption of perfusion/oxygenation; (2). Absence of Aps following stimulation at baseline; (3). Time frame of drug exposure not respected; (4). Unstable response to stimulation at baseline; (5). Resting membrane potential (RMP) > −75 mV; 7). Maximal amplitude of AP (AMAX) <70 mV; 8). AP duration at 90% repolarization (APD90) <200 ms or >450 ms.
# Experimental Procedure: Each test article was evaluated at 4 concentrations in 4 ventricular trabeculae derived from a minimum of 2 donor hearts. Testing concentrations were chosen based upon human free ETPC, aiming to cover 1–100-fold of human free ETPC. […] Briefly, following stabilization of each tissue, APs were collected and assessed for 31 min in vehicle control solution (Tyrode with 0.1% DMSO) at stimulation frequencies of 1 Hz for 25 min, 2 Hz for 3 min and then 1 Hz for 3 min. Following this vehicle control period, 4 concentrations of a test compound were applied sequentially and cumulatively. Each concentration was applied for 31 min with the same stimulation sequence as in vehicle controls.
# For each frequency tested, the last 30 APs acquired at the end of the period were averaged for vehicle controls and for each test article concentration. Analysis at 1 Hz included only the last 30 APs of the initial 25-min incubation period. The following AP parameters and pro-arrhythmia variables were analyzed offline upon the completion of recordings:
# • RMP (mV) • AMAX (mV) • AP duration at percent repolarization (APD20, APD30, APD50, APD60, APD90) (ms) • Short term variability analysis of AP duration (STV): Beat-to-beat variability of repolarization was quantified as STV from APD90 Poincare plots over a period of 30 sec.
# Compound effects were quantified relative to the data collected during the vehicle control period (see Figure 1). […] Additionally, based on AnaBios historical data, threshold values for changes over baseline control for AP instability, APD alternans, Maximum APD dispersion and ERP (APD) were based upon an effect level of 10%. When applicable, differences were tested for statistical significance using the unpaired Student's t-test. A value of P < 0.05 was considered significant.
# AP parameters and pro-arrhythmia variables were combined into a meaningful, single score to assess the pro-arrhythmic risk of a compound at each concentration tested. The pro-arrhythmic potential of compounds at 1 or 2 Hz was determined by assigning a weighted scale to each variable (Table 1).
# [2] = human free (unbound) effective therapeutic plasma concentration used to calculate multiples; cited from earlier work
# [3] = 2Hz, 0.7-FOLD free ETPC (4.1µM)
compound,measurement,setting,value
"Cc1cccc(C)c1OCC(C)N (stereo not shown) [MEXILETINE, Mexiletine]",Refractoriness Escape (raw data),"[1]; 1Hz, 73-FOLD free ETPC (4.1µM)",0
same,AMAX (average raw data),[1]; [3],105
same,AMAX percentage change compared to vehicle control,[1]; [3],-2%
same,APD30 (average raw data),[1]; [3],126
same,APD30 percentage change compared to vehicle control,[1]; [3],-7%
same,APD50 (average raw data),[1]; [3],172
same,APD50 percentage change compared to vehicle control,[1]; [3],-4%
same,APD90 (average raw data),[1]; [3],257
same,APD90 percentage change compared to vehicle control,[1]; [3],-1%
same,Alternans (average raw data),[1]; [3],2.02
same,Alternans percentage change compared to vehicle control,[1]; [3],59%
same,Beat Escape percentage change compared to vehicle control,[1]; [3],50%
same,EADs percentage change compared to vehicle control,[1]; [3],0%
same,ERP (average raw data),[1]; [3],0.45
same,ERP percentage change compared to vehicle control,[1]; [3],5%
same,Max Dispersion (average raw data),[1]; [3],6.13
same,Max Dispersion percentage change compared to vehicle control,[1]; [3],-14%
same,RMP (average raw data),[1]; [3],-88
same,RMP percentage change compared to vehicle control,[1]; [3],0%
same,Refractoriness Escape percentage change compared to vehicle control,[1]; [3],0%
same,STV (average raw data),[1]; [3],1.38
same,STV percentage change compared to vehicle control,[1]; [3],81%
same,Triangulation (average raw data),[1]; [3],131
same,Triangulation percentage change compared to vehicle control,[1]; [3],5%
same,Beat Escape (raw data),[1]; [3],2
same,EADs (raw data),[1]; [3],0
same,Refractoriness Escape (raw data),[1]; [3],0
same,AMAX (average raw data),"[1]; 2Hz, 7-FOLD free ETPC (4.1µM)",99
same,AMAX percentage change compared to vehicle control,"[1]; 2Hz, 7-FOLD free ETPC (4.1µM)",-8%
same,APD30 (average raw data),"[1]; 2Hz, 7-FOLD free ETPC (4.1µM)",128
same,APD30 percentage change compared to vehicle control,"[1]; 2Hz, 7-FOLD free ETPC (4.1µM)",-6%
same,APD50 (average raw data),"[1]; 2Hz, 7-FOLD free ETPC (4.1µM)",167
same,APD50 percentage change compared to vehicle control,"[1]; 2Hz, 7-FOLD free ETPC (4.1µM)",-8%
same,APD90 (average raw data),"[1]; 2Hz, 7-FOLD free ETPC (4.1µM)",255
same,APD90 percentage change compared to vehicle control,"[1]; 2Hz, 7-FOLD free ETPC (4.1µM)",-2%
same,Alternans (average raw data),"[1]; 2Hz, 7-FOLD free ETPC (4.1µM)",1.03
same,Alternans percentage change compared to vehicle control,"[1]; 2Hz, 7-FOLD free ETPC (4.1µM)",-19%
same,Beat Escape percentage change compared to vehicle control,"[1]; 2Hz, 7-FOLD free ETPC (4.1µM)",75%
same,EADs percentage change compared to vehicle control,"[1]; 2Hz, 7-FOLD free ETPC (4.1µM)",0%
same,ERP (average raw data),"[1]; 2Hz, 7-FOLD free ETPC (4.1µM)",0.39
same,ERP percentage change compared to vehicle control,"[1]; 2Hz, 7-FOLD free ETPC (4.1µM)",-9%
same,Max Dispersion (average raw data),"[1]; 2Hz, 7-FOLD free ETPC (4.1µM)",4.70
same,Max Dispersion percentage change compared to vehicle control,"[1]; 2Hz, 7-FOLD free ETPC (4.1µM)",-34%
same,RMP (average raw data),"[1]; 2Hz, 7-FOLD free ETPC (4.1µM)",-89
same,RMP percentage change compared to vehicle control,"[1]; 2Hz, 7-FOLD free ETPC (4.1µM)",1%
same,Refractoriness Escape percentage change compared to vehicle control,"[1]; 2Hz, 7-FOLD free ETPC (4.1µM)",0%
same,STV (average raw data),"[1]; 2Hz, 7-FOLD free ETPC (4.1µM)",0.76
same,STV percentage change compared to vehicle control,"[1]; 2Hz, 7-FOLD free ETPC (4.1µM)",3%
same,Triangulation (average raw data),"[1]; 2Hz, 7-FOLD free ETPC (4.1µM)",127
same,Triangulation percentage change compared to vehicle control,"[1]; 2Hz, 7-FOLD free ETPC (4.1µM)",2%
same,Beat Escape (raw data),"[1]; 2Hz, 7-FOLD free ETPC (4.1µM)",3
same,EADs (raw data),"[1]; 2Hz, 7-FOLD free ETPC (4.1µM)",0
same,Refractoriness Escape (raw data),"[1]; 2Hz, 7-FOLD free ETPC (4.1µM)",0
same,AMAX (average raw data),"[1]; 2Hz, 24-FOLD free ETPC (4.1µM)",90
same,AMAX percentage change compared to vehicle control,"[1]; 2Hz, 24-FOLD free ETPC (4.1µM)",-16%
same,APD30 (average raw data),"[1]; 2Hz, 24-FOLD free ETPC (4.1µM)",129
same,APD30 percentage change compared to vehicle control,"[1]; 2Hz, 24-FOLD free ETPC (4.1µM)",-4%
same,APD50 (average raw data),"[1]; 2Hz, 24-FOLD free ETPC (4.1µM)",169
same,APD50 percentage change compared to vehicle control,"[1]; 2Hz, 24-FOLD free ETPC (4.1µM)",-7%
same,APD90 (average raw data),"[1]; 2Hz, 24-FOLD free ETPC (4.1µM)",269
same,APD90 percentage change compared to vehicle control,"[1]; 2Hz, 24-FOLD free ETPC (4.1µM)",3%
same,Alternans (average raw data),"[1]; 2Hz, 24-FOLD free ETPC (4.1µM)",30.91
same,Alternans percentage change compared to vehicle control,"[1]; 2Hz, 24-FOLD free ETPC (4.1µM)",2347%
same,EADs percentage change compared to vehicle control,"[1]; 2Hz, 24-FOLD free ETPC (4.1µM)",0%
same,ERP (average raw data),"[1]; 2Hz, 24-FOLD free ETPC (4.1µM)",0.37
same,ERP percentage change compared to vehicle control,"[1]; 2Hz, 24-FOLD free ETPC (4.1µM)",-13%
same,Max Dispersion (average raw data),"[1]; 2Hz, 24-FOLD free ETPC (4.1µM)",59.90
same,Max Dispersion percentage change compared to vehicle control,"[1]; 2Hz, 24-FOLD free ETPC (4.1µM)",741%
same,RMP (average raw data),"[1]; 2Hz, 24-FOLD free ETPC (4.1µM)",-88
same,RMP percentage change compared to vehicle control,"[1]; 2Hz, 24-FOLD free ETPC (4.1µM)",0%
same,Refractoriness Escape percentage change compared to vehicle control,"[1]; 2Hz, 24-FOLD free ETPC (4.1µM)",0%
same,STV (average raw data),"[1]; 2Hz, 24-FOLD free ETPC (4.1µM)",21.80
same,STV percentage change compared to vehicle control,"[1]; 2Hz, 24-FOLD free ETPC (4.1µM)",2766%
same,Triangulation (average raw data),"[1]; 2Hz, 24-FOLD free ETPC (4.1µM)",139
same,Triangulation percentage change compared to vehicle control,"[1]; 2Hz, 24-FOLD free ETPC (4.1µM)",11%
same,Beat Escape (raw data),"[1]; 2Hz, 24-FOLD free ETPC (4.1µM)",4
same,EADs (raw data),"[1]; 2Hz, 24-FOLD free ETPC (4.1µM)",0
same,Refractoriness Escape (raw data),"[1]; 2Hz, 24-FOLD free ETPC (4.1µM)",0
same,AMAX (average raw data),"[1]; 2Hz, 73-FOLD free ETPC (4.1µM)",43
same,AMAX percentage change compared to vehicle control,"[1]; 2Hz, 73-FOLD free ETPC (4.1µM)",-60%
same,APD30 (average raw data),"[1]; 2Hz, 73-FOLD free ETPC (4.1µM)",82
same,APD30 percentage change compared to vehicle control,"[1]; 2Hz, 73-FOLD free ETPC (4.1µM)",-30%
same,APD50 (average raw data),"[1]; 2Hz, 73-FOLD free ETPC (4.1µM)",118
same,APD50 percentage change compared to vehicle control,"[1]; 2Hz, 73-FOLD free ETPC (4.1µM)",-30%
same,APD90 (average raw data),"[1]; 2Hz, 73-FOLD free ETPC (4.1µM)",234
same,APD90 percentage change compared to vehicle control,"[1]; 2Hz, 73-FOLD free ETPC (4.1µM)",-3%
same,Alternans (average raw data),"[1]; 2Hz, 73-FOLD free ETPC (4.1µM)",21.46
same,Alternans percentage change compared to vehicle control,"[1]; 2Hz, 73-FOLD free ETPC (4.1µM)",1598%
same,EADs percentage change compared to vehicle control,"[1]; 2Hz, 73-FOLD free ETPC (4.1µM)",0%
same,ERP (average raw data),"[1]; 2Hz, 73-FOLD free ETPC (4.1µM)",0.45
same,ERP percentage change compared to vehicle control,"[1]; 2Hz, 73-FOLD free ETPC (4.1µM)",5%
same,Max Dispersion (average raw data),"[1]; 2Hz, 73-FOLD free ETPC (4.1µM)",35.75
same,Max Dispersion percentage change compared to vehicle control,"[1]; 2Hz, 73-FOLD free ETPC (4.1µM)",402%
same,RMP (average raw data),"[1]; 2Hz, 73-FOLD free ETPC (4.1µM)",-68
same,RMP percentage change compared to vehicle control,"[1]; 2Hz, 73-FOLD free ETPC (4.1µM)",-19%
same,Refractoriness Escape percentage change compared to vehicle control,"[1]; 2Hz, 73-FOLD free ETPC (4.1µM)",0%
same,STV (average raw data),"[1]; 2Hz, 73-FOLD free ETPC (4.1µM)",15.46
same,Triangulation (average raw data),"[1]; 2Hz, 73-FOLD free ETPC (4.1µM)",152
same,Triangulation percentage change compared to vehicle control,"[1]; 2Hz, 73-FOLD free ETPC (4.1µM)",25%
same,Beat Escape (raw data),"[1]; 2Hz, 73-FOLD free ETPC (4.1µM)",2
same,EADs (raw data),"[1]; 2Hz, 73-FOLD free ETPC (4.1µM)",0
same,Refractoriness Escape (raw data),"[1]; 2Hz, 73-FOLD free ETPC (4.1µM)",0
same,Free ETPC,[2],4.1 µM

# — paper PMC5760531, “Action Potential Recording and Pro-arrhythmia Risk Analysis in Human Ventricular Trabeculae” (Frontiers in Physiology, 2018)
